In US12503453B2, “USP7 inhibition” (Dana-Farber Cancer Institute, Inc., priority 2018, dated 2025):

What was measured:
[1] = target: USP7 (Homo sapiens (Human), UniProt Q93009); experiment: Live cell treatment and competitive ABPP with HA-Ub-VS; assay type: cell-based; details: live cell treatment, 6 hr; read-out: IC50 of USP7 inhibition in cyto
Procedure: HA-Ub-VS experiments were performed as previously described in Lamberto, I. et al. Structure-Guided Development of a Potent and […] Selective Non-covalent Active-Site Inhibitor of USP7. Cell Chem. Biol. 24, 1490-1500 (2017). Briefly, target engagement lysis buffer (50 mM Tris pH 8.0, 150 mM NaCl, 5 mM MgCl2, 0.5 mM EDTA, 0.5% NP-40, 10% glycerol, 1 mM TCEP, protease and phosphatase inhibitors) was added to cell pellets on ice. Lysate was cleared by centrifugation and diluted to 1.67 mg/mL. Where indicated, 30 μL lysate was then incubated with inhibitors or DMSO for the indicated timepoints. 1 μM HA-Ub-VS was then added to the lysate and incubated at RT for the indicated time points. Labeling reactions were quenched with 4×LDS sample buffer (Thermo Fisher B0007) supplemented with 10% BME, vortexed vigorously, and heated to 95° C. for 5 minutes. Samples were resolved by SDS-PAGE and analyzed by Western blot with the indicated antibodies.

[2] = tested on: MCF7 cells; experiment: Cell cycle analysis by propidium iodide staining; assay type: cell-based; details: 1 μM, 24 hours
Procedure: For propidium iodide (PI) staining, treated cells (˜1 million per condition) were washed with cold PBS, then fixed in 80% ethanol overnight at −20° C. After fixing, cells were pelleted, washed with PBS, and reconstituted in 500 μL FxCycle PI/RNAse A staining solution (Thermo Fisher). Cells were stored overnight at 4° C. and analyzed using a BD Fortessa flow cytometer.

[3] = target: USP7-F291N (Homo sapiens (Human), UniProt Q93009, F291N); experiment: Ub-AMC assay with mutant USP7-F291N; assay type: biochemical; details: 6-hr pre-incubation
Procedure: Full length USP7 was tested for its activity in Ubiquitin-AMC assay in presence or absence of inhibitors. USP7 (5 nM) was pre-incubated for 6 hours at room temperature with different concentrations of inhibitors or DMSO as a control in 50 mM HEPES pH 7.5, 0.5 mM EDTA, 11 μM ovalbumin, and 5 mM DTT. Ubiquitin-AMC (Boston Biochem) was then added to a final concentration of 500 nM. The initial rate of the reaction was measured by collecting fluorescence data at one minute intervals over 30-minute period using a Clariostar fluorescence plate reader at excitation and emission wavelength of 345 and 445 nm respectively. The calculated initial rate values were plotted against inhibitor concentrations to determine IC50s. All the experimental data were plotted using Prism GraphPad. All assays for each compound were performed at least twice for each compound.

[4] = tested on: 41 purified recombinant DUBs; experiment: In vitro DUB profiling, panel of 41 recombinant DUBs (Ub-Rho); assay type: biochemical; details: 1 μM, 15 minutes pre-incubation
Procedure: Compounds were screened using the Ubiquigent Drug Profiler SPT system. Each of 41 purified DUBs was incubated with compound for 15 minutes, then ubiquitin rhodamine 110 (Ub-Rho) was added and percent inhibition determined based on fluorescence relative to a DMSO control.

[5] = target: DUBs in HEK293AD lysate (Homo sapiens, UniProt Q93009); experiment: In situ DUB profiling, competitive ABPP with Bio-Ub-PA/VME and quantitative MS; assay type: binding; details: HEK293 crude cell extract, 5 hours pre-incubation
Procedure: DUB profiling was performed using conditions similar to those in Lawson, A. P. et al. Identification of deubiquitinase targets of isothiocyanates using SILAC-assisted quantitative mass spectrometry. Oncotarget 5, (2017). HEK 293AD cells were lysed using target engagement lysis buffer (50 mM Tris pH 8.0, 150 mM NaCl, 5 mM MgCl2, 0.5 mM EDTA, 0.5% NP-40, 10% glycerol, 1 mM TCEP, protease and phosphatase inhibitors), and the lysate was cleared by centrifugation. […] Excess inhibitor was removed using a 30K Amicon spin filter, then the resulting lysate was incubated with 1 μM each of Biotin-Ub-PA and Biotin-Ub-VME for 90 minutes at RT. SDS was added to a final concentration of 1.2%, and samples were heated to 80° C. for 5 minutes. After cooling to RT, 1×PBS was added to dilute the final SDS concentration to 0.2%. […]
Streptavidin beads were resuspended in 95 μL 100 mM Tris pH 8.0. […] Eluted peptides were then analyzed by nanoLC-MS as described (Ficarro, S. B. et al. Improved electrospray ionization efficiency compensates for diminished chromatographic resolution and enables proteomics analysis of tyrosine signaling in embryonic stem cells. Anal. Chem. 81, 3440-3447 (2009)) with a NanoAcquity UPLC system (Waters, Milford, MA) interfaced to a QExactive HF mass spectrometer (Thermofisher Scientific, San Jose, CA). […]

Sequence of USP7 (Q93009 whole entry): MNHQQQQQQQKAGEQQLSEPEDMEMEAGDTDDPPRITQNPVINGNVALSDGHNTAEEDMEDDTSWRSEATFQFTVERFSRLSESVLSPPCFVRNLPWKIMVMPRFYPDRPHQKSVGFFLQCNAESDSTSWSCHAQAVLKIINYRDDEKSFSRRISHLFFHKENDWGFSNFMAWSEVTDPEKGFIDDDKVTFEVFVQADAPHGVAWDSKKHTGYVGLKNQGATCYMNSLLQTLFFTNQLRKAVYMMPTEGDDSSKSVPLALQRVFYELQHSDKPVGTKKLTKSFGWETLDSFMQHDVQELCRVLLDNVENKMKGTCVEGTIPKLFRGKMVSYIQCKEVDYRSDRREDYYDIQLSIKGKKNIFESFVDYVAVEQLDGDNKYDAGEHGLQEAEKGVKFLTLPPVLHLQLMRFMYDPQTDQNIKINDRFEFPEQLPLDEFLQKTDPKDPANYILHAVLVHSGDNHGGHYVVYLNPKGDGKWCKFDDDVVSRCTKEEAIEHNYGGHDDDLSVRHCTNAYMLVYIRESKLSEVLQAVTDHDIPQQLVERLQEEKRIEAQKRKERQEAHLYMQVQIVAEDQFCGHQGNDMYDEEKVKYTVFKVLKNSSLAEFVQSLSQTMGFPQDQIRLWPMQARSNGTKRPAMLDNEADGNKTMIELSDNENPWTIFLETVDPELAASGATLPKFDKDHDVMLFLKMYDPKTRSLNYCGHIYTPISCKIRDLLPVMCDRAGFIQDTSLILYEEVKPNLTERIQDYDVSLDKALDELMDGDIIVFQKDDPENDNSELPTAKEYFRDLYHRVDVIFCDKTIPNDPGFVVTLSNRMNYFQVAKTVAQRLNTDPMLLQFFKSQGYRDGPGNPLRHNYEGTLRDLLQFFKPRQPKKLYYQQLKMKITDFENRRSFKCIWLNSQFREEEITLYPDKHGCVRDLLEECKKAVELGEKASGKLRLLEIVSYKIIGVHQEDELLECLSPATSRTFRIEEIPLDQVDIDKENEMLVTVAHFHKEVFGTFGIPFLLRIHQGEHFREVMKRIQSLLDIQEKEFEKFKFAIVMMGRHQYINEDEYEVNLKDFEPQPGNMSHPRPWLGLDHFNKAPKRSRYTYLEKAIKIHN
Sequence of USP7-F291N (Q93009 whole entry F291N): as the sequence (Q93009 whole entry) above, with F291N counted along it

Question: Which IC50 [1] does the source give for `CN1CCN(CCC(=O)Nc2ccc3c(=O)n(CC4(O)CCN(C(=O)[C@@H](CCCNC(=O)c5ccc6c(Cl)c7c(nc6c5)CCCC7)Cc5ccccc5)CC4)cnc3c2)CC1` [compound 6, (S)—N-(4-benzyl-5-(4-hydroxy-4-((7-(3-(4-methylpiperazin-1-yl)propanamido)-4-oxoquinazolin-3(4H)-yl)methyl)piperidin-1-yl)-5-oxopentyl)-9-chloro-5,6,7,8-tetrahydroacridine-3-carboxamide] here?
Answer: 39 nM

Question: And the cell cycle effect [2]?
Answer: complete G1 arrest

Question: And the “loss in potency compared to wild-type enzyme” value [3]?
Answer: 100 fold

Question: What about the “activity against other DUBs of the panel” value [4] of the same compound?
Answer: did not exhibit significant activity against any other DUBs

Question: And the “inhibition of USP7 enzymatic activity” value [4]?
Answer: completely inhibited USP7 enzymatic activity

Question: And the “blocking of USP7 labeling by DUB ABPs” value [5]?
Answer: significantly blocked USP7 labeling
